#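 The compound was tested at five concentrations on cells cultured in 96-well plates, with a 48-hour exposure period. At the GI50, growth is halved. Definition used: TGI = concentration required for complete inhibition of growth.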
# Experiments:
# Test in all cases: NCI-60 cell line screen, 48 h
# [1] = test system: SF-295 CNS
# [2] = test system: SK-MEL-5 melanoma
# [3] = test system: HOP-92 NSCLC
# [4] = test system: NCI/ADR-RES ovarian
# [5] = test system: TK-10 renal
# [6] = test system: NCI-H23 lung
# [7] = test system: DU-145 prostate
# [8] = test system: A549 NSCLC
# [9] = test system: KM12 colon
# [10] = test system: PC-3 prostate
# [11] = test system: HOP-62 NSCLC
# [12] = test system: T-47D breast
# [13] = test system: BT-549 breast
# [14] = test system: LOX IMVI melanoma
# [15] = test system: CCRF-CEM leukemia
# [16] = test system: MALME-3M melanoma
# [17] = test system: UO-31 renal
# [18] = test system: EKVX NSCLC
# [19] = test system: MOLT-4 leukemia
# [20] = test system: SK-MEL-28 melanoma
# [21] = test system: NCI-H522 lung
# [22] = test system: SK-OV-3 ovarian
# [23] = test system: RPMI-8226 leukemia
# [24] = test system: HCC-2998 colon
# [25] = test system: UACC-62 melanoma
# [26] = test system: SN12C renal
# [27] = test system: OVCAR-5 ovarian
# [28] = test system: OVCAR-4 ovarian
# [29] = test system: U251 CNS
# [30] = test system: A498 renal
# [31] = test system: COLO 205 colon
# [32] = test system: SNB-75 CNS
# [33] = test system: OVCAR-3 ovarian
# [34] = test system: HT29 colon
# [35] = test system: SNB-19 CNS
# [36] = test system: ACHN renal
# [37] = test system: RXF 393 renal
# [38] = test system: K-562 leukemia
# [39] = test system: HS 578T breast
# [40] = test system: SK-MEL-2 melanoma
# [41] = test system: SF-539 CNS
# [42] = test system: MCF7 breast
# [43] = test system: CAKI-1 renal
# [44] = test system: SW-620 colon
# [45] = test system: IGROV1 ovarian
# [46] = test system: OVCAR-8 ovarian
# [47] = test system: UACC-257 melanoma
# [48] = test system: HL-60(TB) leukemia
# [49] = test system: NCI-H460 lung
# [50] = test system: M14 melanoma
# [51] = test system: MDA-MB-435
# [52] = test system: 786-0 renal
# [53] = test system: HCT-15 colon
# [54] = test system: MDA-MB-231 breast
compound,measurement,setting,value
O=C1/C(=C/c2ccccc2)CN(C(=O)CCN2CCC(=NO)CC2)C/C1=C\c1ccccc1,GI50,[1],2080 nM
same,TGI,[1],4640 nM
same,GI50,[2],1640 nM
same,TGI,[2],2990 nM
same,GI50,[3],2030 nM
same,TGI,[3],6400 nM
same,GI50,[4],2490 nM
same,TGI,[4],8680 nM
same,GI50,[5],2380 nM
same,TGI,[5],7790 nM
same,GI50,[6],1890 nM
same,TGI,[6],4280 nM
same,GI50,[7],1800 nM
same,TGI,[7],3270 nM
same,GI50,[8],3050 nM
same,GI50,[9],663 nM
same,TGI,[9],2230 nM
same,GI50,[10],1520 nM
same,TGI,[10],3870 nM
same,GI50,[11],1790 nM
same,TGI,[11],3640 nM
same,GI50,[12],2680 nM
same,TGI,[12],7910 nM
same,GI50,[13],1630 nM
same,TGI,[13],3270 nM
same,GI50,[14],366 nM
same,TGI,[14],1410 nM
same,GI50,[15],758 nM
same,TGI,[15],9330 nM
same,GI50,[16],2010 nM
same,TGI,[16],5180 nM
same,GI50,[17],1400 nM
same,TGI,[17],2710 nM
same,GI50,[18],2810 nM
same,TGI,[18],9010 nM
same,GI50,[19],686 nM
same,TGI,[19],11300 nM
same,GI50,[20],2190 nM
same,TGI,[20],5290 nM
same,GI50,[21],1600 nM
same,TGI,[21],3360 nM
same,GI50,[22],2510 nM
same,TGI,[22],7090 nM
same,GI50,[23],320 nM
same,TGI,[23],1230 nM
same,GI50,[24],1730 nM
same,TGI,[24],3320 nM
same,GI50,[25],1700 nM
same,TGI,[25],3770 nM
same,GI50,[26],1860 nM
same,TGI,[26],4030 nM
same,GI50,[27],1800 nM
same,TGI,[27],3580 nM
same,GI50,[28],2150 nM
same,TGI,[28],4690 nM
same,GI50,[29],1510 nM
same,TGI,[29],3490 nM
same,GI50,[30],1670 nM
same,TGI,[30],3900 nM
same,GI50,[31],1680 nM
same,TGI,[31],3290 nM
same,GI50,[32],2850 nM
same,TGI,[32],11500 nM
same,GI50,[33],1660 nM
same,TGI,[33],3150 nM
same,GI50,[34],1210 nM
same,TGI,[34],3610 nM
same,GI50,[35],1830 nM
same,TGI,[35],4060 nM
same,GI50,[36],1850 nM
same,TGI,[36],3910 nM
same,GI50,[37],1560 nM
same,TGI,[37],2960 nM
same,GI50,[38],396 nM
same,TGI,[38],> 100000 nM
same,GI50,[39],3090 nM
same,TGI,[39],14600 nM
same,GI50,[40],4560 nM
same,TGI,[40],16200 nM
same,GI50,[41],1910 nM
same,TGI,[41],3850 nM
same,GI50,[42],355 nM
same,TGI,[42],1980 nM
same,GI50,[43],1610 nM
same,TGI,[43],3010 nM
same,GI50,[44],322 nM
same,TGI,[44],1300 nM
same,GI50,[45],1690 nM
same,TGI,[45],3350 nM
same,GI50,[46],1310 nM
same,TGI,[46],3290 nM
same,GI50,[47],1920 nM
same,TGI,[47],4700 nM
same,GI50,[48],2590 nM
same,TGI,[48],8330 nM
same,GI50,[49],2430 nM
same,TGI,[49],5830 nM
same,GI50,[50],1500 nM
same,TGI,[50],3370 nM
same,GI50,[51],1420 nM
same,TGI,[51],3190 nM
same,GI50,[52],1980 nM
same,TGI,[52],4510 nM
same,GI50,[53],1390 nM
same,TGI,[53],3270 nM
same,GI50,[54],1830 nM
same,TGI,[54],3470 nM

# Reference: PubChem BioAssay (NCI)
